Experimental data reported in patent US4913908A, “Preparation of submicroscopic particles, particles thus obtained and pharmaceutical compositions containing them” (N. V. Sopar S.A., priority 1981, dated 1990).

Assays:
[1] = Toxicity: survival/mortality of mice after intravenous administration or injections; type: in vivo; settings: mouse, in vivo; intravenous, three successive doses of 10 mg/kg/day; read-out: mice that do not survive for 15 days
Description: (§1) Several toxicity measurements are carried out with suspensions of particles obtained by this process.

mice = assay: as above; type: in vivo; settings: three injections of 12.5 mg/kg/day; result in words
Description: as §1

## COc1cccc2c1C(=O)c1c(O)c3c(c(O)c1C2=O)C[C@@](O)(C(=O)CO)C[C@@H]3O[C@H]1C[C@H](N)[C@H](O)[C@H](C)O1 [doxorubicin]
[1]
  mortality at 360 h: 27.5%
mice
  mice that survive: none of the mice survives
